The source of these data is patent US20170216329A1, “Ceramide-Rubusoside Nanomicelles and Their Use in Cancer Therapy” (Board of Supervisors of Louisiana State University and …, priority 2014, published 2017).

The test system of data set [1] is wt p53 (phosphorylated-Ser15). Conditions: cited from earlier work.
The subject of data set [2] is OVCAR3 ovarian cancer cells (p53 R248 missense mutation). As to the kind of experiment: Cell viability after 72 hours, OVCAR3. The data set is classed as cell-based, Human. The protocol:
We examined the effect of Ceramide-RUB nanomicelles on p53 restoration in cancer cell models. Human OVCAR3 ovarian cancer cells carry a p53 R248 missense mutation, and are resistant to many anticancer drugs. […] FIG. 3 depicts cell viability (as a percentage of control) after treatment for 72 hours with varying concentrations of C6-Ceramide. FIG. 4 depicts cell viability (as a percentage of control) after treatment for 72 hours with varying concentrations of C6-Ceramide-Rubusoside. FIG. 5 depicts cell viability (as a percentage of control) after treatment for 72 hours with varying concentrations of Rubusoside.

Data set [3] concerns protein phosphatase 1 (PP1). Briefly: PP1 activity in NCI/ADR-RES cells. The data set is classed as cell-based, human. The protocol:
Cer can modulate gene expression, not only by activating transcription, but also by determining protein isoform. […] We assessed the roles of protein phosphatase 1 (PP1) and serine/arginine-rich splicing-factor 1 SRSF1 in Cer-induced wt p53 restoration via PP1 and SRSF1 in NCI/ADR-RES human ovarian cancer cells. […] Cells were pretreated with CalA (5 nM) for 4 hr, and then with either MBO-asGCS (MBO-as, 100 nM) or C6-Cer (2.5 μM) for 72 hr. FIG. 2 depicts PP1 activity in NCI/ADR-RES cells with various treatments. […] These increases were correlated with increases in wt p53 mRNA (exon 5) and pp53 (as assessed by RT-PCR amplification, data not shown).

Data set [4] relates to A2780 ovarian cancer cells (p53 wild-type). As to the kind of experiment: Cell viability after 72 hours, A2780. It counts as cell-based.
For data set [5], the system named is p53, Bax and p21 in the small intestine. Briefly: p53 restoration in heterozygous p53R172H/+ transgenic mice (small intestine). It counts as in vivo. Conditions: 1 mg/kg, i.p., every 3 days for 6 days; vs. saline. The text has this:
We examined the effects of Cer on restoring wt p53 expression in p53 missense transgenic mice. The experimental animals were heterozygous 129S4-Trp53^tm2.1Tyj transgenic mice, which carry the mutation p53^R172H/+, and have a genetic predisposition to cancer. (Doyle et al., 2010; Olive et al., 2004; Yu et al., 2012) These mice were generously provided by the NCI Mouse Repository (Rockville, Md.). We analyzed the genotypes of offspring by PCR analysis of DNA from blood collected from the tail vein. Heterozygous (HTZ) p53^R172H/+ mice were treated with C6-Cer or C6-Cer-RUB (1 mg/kg, i.p., every 3 days for 6 days).

Data set [6] relates to HTZ SW48/TP53+/− and parental SW48 (wt p53) cells. Briefly: Sensitivity of SW48 cells to Cers. It counts as cell-based, human. Conditions: both cell lines, data not shown.
Data set [7] is described as follows: WHO intake limits (ADI, NOEL). Conditions: converted from the steviol ADI. The protocol: (§1) Rubusoside (RUB) is a steviol glycoside. Steviol glycosides, extracted from the leaves of various plants, are often used as natural food sweeteners. […] Rubusoside is generally recognized as safe (GRAS) as a food additive for the general public according to the World Health Organization (WHO) (2005). A WHO expert panel has set 760 mg/kg/day RUB as the no-observed-effect level (NOEL) (2005). Thus there is ample tolerance for avoiding toxicity when rubusoside is employed in the present invention.

The nature of data set [8]: Preliminary oral toxicity study in normal mice. It counts as in vivo. Conditions: up to 4 g daily per kg body mass, orally, two weeks. The protocol: as §1
The conditions of data set [9]: set by WHO expert panel (2005); cited from earlier work.

In the case of `CCCCCCCCCCCCC/C=C/[C@@H](O)[C@H](CO)NC(=O)CCCCC` [C6-Cer, C6-Ceramide], the “restoration of p53 activity” value in [1] (exogenous, Liu et al., 2011) is given as “restored p53 activity”. The IC50 (commonly the concentration at which inhibition is half-maximal) in data set [2] (OVCAR3 cells, 72 hours) was 12.5 µM; in data set [4], 0.9 µM. Moreover, the “resistance of OVCAR3 relative to A2780 cells” value in [2] (ratio of IC50 values) came to 12 times. In addition, the PP1 activity result in [3] (MBO-asGCS 100 nM or C6-Cer 2.5 μM, 72 hr) is listed as “significantly increased”. Moreover, the “protein level of Bax in the small intestine” value in data set [5] is on record as “significantly increased”. The “protein level of p53 in the small intestine” value in data set [5] is “significantly increased”.
For the compound `CCCCCCCCCCCCC/C=C/[C@@H](O)[C@H](CO)NC(=O)CCCCCCCCCCCCCCCCC` [C18-Cer], the “relative sensitivity of cells to Cers” value in data set [6] was “more sensitive to C18-Cer than C6-Cer”.
For the compound `CCCC[C@@H](C)[C@@H](OC(=O)C[C@@H](CC(=O)O)C(=O)O)[C@H](C[C@@H](C)C[C@H](O)CCCC[C@@H](O)C[C@H](O)[C@H](C)N)OC(=O)C[C@@H](CC(=O)O)C(=O)O` [Fumonisin B1], in [1] (inhibitor of Cer synthase), the “effect on p53 restoration by MBO-asGCS” value is “inhibited p53 restoration”.
With `C=C1C[C@@]23CC[C@H]4[C@@](C)(CCC[C@@]4(C)C(=O)O[C@@H]4O[C@H](CO)[C@@H](O)[C@H](O)[C@H]4O)[C@@H]2CC[C@]1(O[C@@H]1O[C@H](CO)[C@@H](O)[C@H](O)[C@H]1O)C3` [Rubusoside, rubusoside], the “Accepted Daily Intake (ADI), roughly comparable amount” value in [7] was in the range of 8 to 12 mg/kg/day. The cytotoxicity entry in data set [2] (OVCAR-3 cells, any concentration tested up to 15 μM, 72 hours) was “no cytotoxicity”; in data set [4] (any concentration tested up to 15 μM), “no cytotoxicity”. In addition, in data set [8], the “clinical signs of toxicity” value is given as “did not cause any clinical signs of toxicity”. Further, the “no-observed-effect level (NOEL)” value in data set [9] was 760 mg/kg/day.
Turning to `COC[C@@H]([C@H](O)[C@H](O)C(=O)NCC[C@H](C)c1nc(/C=C/C[C@@H]2O[C@]3(C[C@@H](O)[C@@H]2C)O[C@H]([C@H](C[C@H](O)[C@H](C)[C@H](O)[C@H](C)/C=C(C)/C(C)=C/C=C/C(C)=C\C#N)OC)[C@H](OP(=O)(O)O)C3(C)C)co1)N(C)C` [calyculin A], in [3], the “effect on PP1 activation by MBO-asGCS and C6-Cer” value is on record as “abolished these effects”.
